Measured values as given in US20210322582A1, “RADIOACTIVE IMIDAZOTHIADIAZOLE DERIVATIVE COMPOUND” (Nihon Medi-Physics Co., Ltd., priority 2018, published 2021).

Tests used:
[1] = system: CA-IX-positive HT-29 cells; experiment: In vitro CA-IX affinity and specificity, cell binding, cells lysed at room temperature (Example 11); assay type: cell-based; details: for Inhibition of cell binding by acetazolamide: HT-29 cells, AZ 50 μM, 21% or 1% oxygen, lysis at room temperature; for Selectivity of binding to CA-IX: HT-29 vs MDA-MB-231 cells, room temperature lysis
Protocol: (§1) HT-29 cells (purchased from Dainippon Sumitomo Pharma Co., Ltd.) and MDA-MB-231 cells (purchased from Dainippon Sumitomo Pharma Co., Ltd.) were incubated in a 12-well plate (2.0×10^5 cells/well) at 37° C. for 24 hours under an atmosphere of 5% carbon dioxide and 21% oxygen, and then further incubated at 37° C. for 24 hours under an atmosphere of 5% carbon dioxide and 21% or 1% oxygen. After the culture medium was removed, Dulbecco's modified Eagle's medium (DMEM, 1 mL) containing[^111In]ITDA1 (14 kBq), [^111In]ITDA2 (26 kBq), or [^111In]ITDA3 (37 kBq) was added to each well, and then the incubation was performed at 37° C. for 2 hours under an atmosphere of 5% carbon dioxide and 21% or 1% oxygen. In addition, a separate plate was incubated in a similar manner as in the above except that acetazolamide (AZ, 50 μM) was added to [^111In]ITDA1 (14 kBq), [^111In]ITDA2 (26 kBq), or [^111In]ITDA3 (37 kBq) as a competitive compound for CA-IX. After that, each well was washed with 1 mL of phosphate-buffered saline (PBS, pH 7.4) (manufactured by NACALAI TESQUE, INC.), and the cells were lysed at room temperature in an aqueous solution of 1 N sodium hydroxide ([^111In]ITDA1: 0.25 mL×2, [^111In]ITDA2: 0.5 mL×2, and [^111In]ITDA3: 0.2 mL×2). The amount of radioactivity bound to the cells was measured by a gamma counter (model name: Wallac 1470 Wizard, PerkinElmer, Massachusetts, made in U.S.A., the same applies to the following examples).
(§2) FIG. 3A is a graph showing whether or not the affinity of compound [^111In]ITDA1 for CA-IX in each of the HT-29 cells and the MDA-MB-231 cells is inhibited by the coexistence of acetazolamide (AZ). Further, FIG. 3B is a graph showing whether or not the affinity of compound [^111In]ITDA2 for CA-IX in each of the HT-29 cells and the MDA-MB-231 cells is inhibited by the coexistence of acetazolamide (AZ). Moreover, FIG. 3C is a graph showing whether or not the affinity of compound [^111In]ITDA3 for CA-IX in each of the HT-29 cells and the MDA-MB-231 cells is inhibited by the coexistence of acetazolamide (AZ).

[2] = system: CA-IX-negative MDA-MB-231 cells; experiment: as above; assay type: cell-based; details: AZ 50 μM, 21% or 1% oxygen, lysis at room temperature
Protocol: as §1, §2

[3] = 1-octanol/PBS (pH 7.4) partition coefficient; assay type: physicochemical
Protocol: The 1-octanol/PBS (pH 7.4) partition coefficients of [^111In]ITDA1 and [^111In]ITDA2, which were obtained in Example 6, and [^111In]ITDA3 obtained in Example 10 were measured.
The above two phases were saturated with each other in advance, and 1-octanol (3 mL) and PBS (3 mL) were pipetted into a 15-mL test tube containing [^111In]ITDA1 (37 kBq), [^111In]ITDA2 (37 kBq), or [^111In]ITDA3 (370 kBq). The test tube was vortexed for 2 minutes and centrifuged (4,000 g, 5 minutes). 0.5 mL was taken from each of the 1-octanol phase and the PBS phase, and transferred to two test tubes, respectively for measurement. The residual PBS phase (1 mL), and newly prepared 1-octanol (3 mL) and PBS (2 mL) were pipetted into a new test tube. The amount of radioactivity in each test tube was measured by using a gamma counter. The partition coefficient was calculated by using the equation log Pow=log10[count1-octanol/countPBS]. As a result, the log Pow of [^111In]ITDA1 was −3.72±0.05, the log Pow of [^111In]ITDA2 was −2.32±0.01, and the log Pow of [^111In]ITDA3 was −3.47±0.09.

[4] = In vitro stability in mouse plasma; assay type: in vitro ADME; details: 37° C.; for Stability in mouse plasma: 24-hour incubation; for Stability (intact (%)): mouse plasma
Protocol: Blood was collected from a ddy mouse (purchased from Shimizu Laboratory Supplies Co., Ltd.), and centrifuged (1,200 g, 10 minutes) in a venous blood collection tube (manufactured by Becton, Dickinson and Company). The blood plasma (200 μL) was separated, a saline solution (185 kBq) of [^111In]ITDA1, [^111In]ITDA2, or [^111In]ITDA3 was added into the blood plasma, and the obtained mixture was incubated at 37° C. for 1, 4, 8, and for 24 hours (n=3). Further, into the incubated mixture, acetonitrile (200 μL) was added, and then the mixture was centrifuged (10,000 g, 5 minutes), the supernatant was filtered with COSMONICE Filter (S) (0.45 μm, 4 mm) (manufactured by NACALAI TESQUE, INC.), and the filtrate was analyzed by RP-HPLC under the following conditions. In this regard, the intact % in FIGS. 4A and 4B was determined from the area percentage of the RP-HPLC elution pattern.
Column: Cosmosil Cis column (5C18-PAQ, 4.6×250 mm)
Mobile phase: water/acetonitrile/trifluoroacetic acid (90: 10: 0.1 (0 min)→60: 40: 0.1 (30 min)), and flow rate for analysis: 1.0 mL/min

[5] = system: CA-IX-positive HT-29 cells; experiment: In vitro CA-IX affinity and specificity, cell binding, cells lysed at 37° C. (Example 18); assay type: cell-based; details: for Inhibition of cell binding by acetazolamide: HT-29 cells, normoxic and hypoxic; for Inhibition of cell binding by acetazolamide / Selectivity of binding to CA-IX: lysis at 37° C.; for Selectivity of binding to CA-IX: HT-29 vs MDA-MB-231 cells
Protocol: as §1
(§3) Example 18 was performed similarly as in Example 11 except that the cells were lysed in a constant temperature water bath at 37° C. The accumulation of radioactivity in each cell was expressed by % initial dose/mg protein obtained by dividing the ratio of the amount of radioactivity bound to each cell to the added amount of radioactivity by the amount of cell protein.

[6] = system: CA-IX-negative MDA-MB-231 cells; experiment: as above; assay type: cell-based; details: for Inhibition of cell binding by acetazolamide: MDA-MB-231 cells, normoxic and hypoxic, lysis at 37° C.
Protocol: as §1, §3

[7] = 1% Oxygen AZ(+), acetazolamide 50 μM
[8] = 21% Oxygen AZ(+), acetazolamide 50 μM

Structure (SMILES) | Inhibition of cell binding by acetazolamide [1] | Selectivity of binding to CA-IX [1] | Inhibition of cell binding by acetazolamide [2] | log Pow [3] | Stability in mouse plasma [4] | Amount of binding to HT-29 cells [5, 7] [% initial dose/mg protein] | Amount of binding to HT-29 cells ([5]; 1% Oxygen AZ(−)) [% initial dose/mg protein] | Amount of binding to HT-29 cells [5, 8] [% initial dose/mg protein] | Amount of binding to HT-29 cells ([5]; 21% Oxygen AZ(−)) [% initial dose/mg protein] | Inhibition of cell binding by acetazolamide [5] | Selectivity of binding to CA-IX [5] | Amount of binding to MDA-MB-231 cells [6, 7] [% initial dose/mg protein] | Amount of binding to MDA-MB-231 cells ([6]; 1% Oxygen AZ(−)) [% initial dose/mg protein] | Amount of binding to MDA-MB-231 cells [6, 8] [% initial dose/mg protein] | Amount of binding to MDA-MB-231 cells ([6]; 21% Oxygen AZ(−)) [% initial dose/mg protein] | Inhibition of cell binding by acetazolamide [6] | also measured
NS(=O)(=O)c1nn2cc(-c3ccc(NC(=O)CN4CCN(CC(=O)O)CCN(CC(=O)O)CCN(CC(=O)O)CC4)cc3)nc2s1.[111In+3] [[^111In]ITDA1, [^111In]indium(III)2,2′,2″-(10-(2-oxo-2-((4-(2-sulfamoylimidazo[2,1-b][1,3,4]thiadiazol-6-yl)phenyl)amino)ethyl)-1,4,7,10-tetraazacyclododecan-1,4,7-triyl) triacetic acid] | the inhibition was observed in the presence of acetazolamide | selectively bind to the CA-IX | the competitive inhibition was not observed | −3.72±0.05 | sufficient stability | 2.2 ± 0.5 | 198.9 ± 5.7 | 0.9 ± 0.2 | 118.1 ± 21.4 | the inhibition was observed in the presence of acetazolamide | selectively bind to the CA-IX | 0.1 ± 0.0 | 6.5 ± 0.8 | 0.1 ± 0.0 | 1.4 ± 0.3 | the competitive inhibition was not observed | 
NS(=O)(=O)c1nn2cc(-c3ccc(NC(=O)CN4CCN(CC(=O)O)CCN(CC(=O)Nc5ccc(-c6cn7nc(S(N)(=O)=O)sc7n6)cc5)CCN(CC(=O)O)CC4)cc3)nc2s1.[111In+3] [[^111In]ITDA2, [^111In]indium(III)2,2′-(4,10-bis(2-oxo-2-((4-(2-sulfamoylimidazo[2,1-b][1,3,4]thiadiazol-6-yl)phenyl)amino)ethyl)-1,4,7,10-tetraazacyclododecan-1,7-diyl) diacetic acid] | the inhibition was observed in the presence of acetazolamide | selectively bind to the CA-IX | the competitive inhibition was not observed | −2.32±0.01 | sufficient stability | 12.1 ± 3.7 | 109.2 ± 6.7 | 7.6 ± 2.3 | 48.3 ± 5.9 | the inhibition was observed in the presence of acetazolamide | selectively bind to the CA-IX | 0.7 ± 0.1 | 2.9 ± 0.4 | 1.4 ± 0.2 | 2.5 ± 0.5 | the competitive inhibition was not observed | 
NS(=O)(=O)c1nn2cc(-c3ccc(NC(=O)CCC(C(=O)O)N4CCN(CC(=O)[O-])CCN(CC(=O)[O-])CCN(CC(=O)[O-])CC4)cc3)nc2s1.[111In+3] (stereo not shown) [[^111In]ITDA3] | the inhibition was observed in the presence of acetazolamide | selectively bind to the CA-IX | the competitive inhibition was not observed | −3.47±0.09 |  | 1.0 ± 0.1 | 93.4 ± 16.0 | 0.3 ± 0.0 | 47.2 ± 6.8 | the inhibition was observed in the presence of acetazolamide | selectively bind to the CA-IX | 0.1 ± 0.0 | 2.0 ± 1.1 | 0.2 ± 0.0 | 0.5 ± 0.1 | the competitive inhibition was not observed | Stability (intact %) in mouse plasma ([4]; incubation for 1 to 24 hours): ≥ 95%; Stability (intact (%)) ([4]; 1 h): 97.4 ± 0.8%; Stability (intact (%)) ([4]; 4 h): 99.0 ± 0.6%; Stability (intact (%)) ([4]; 8 h): 98.0 ± 0.1%; Stability (intact (%)) ([4]; 24 h): 98.8 ± 0.4%
